Results: patent US20250381254A1, “Augmented Acid Alpha-Glucosidase For The Treatment Of Pompe Disease” (Amicus Therapeutics, Inc., priority 2015, published 2025)
Read-outs that look alike come from different tables or passages of the source.

Tests used:
[1] = Miglustat toxicokinetics; assay type: in vivo, cynomolgus monkey; settings: for AUC(0-t) / Cmax / half-life / Tmax / Vd/F: cynomolgus monkey, plasma; for Vd/F: read-out: Vz/F
Experimental: Analysis of miglustat concentration was carried out using a LC-MS/MS method analogous to that described for analysis of duvoglustat concentration by Richie Khanna, Allan C. Powe Jr., Yi Lun, Rebecca Soska, Jessie Feng, Rohini Dhulipala, Michelle Frascella, Anadina Garcia, Lee J. Pellegrino, Su Xu, Nastry Brignol, Matthew J. Toth, Hung V. Do, David J. Lockhart, Brandon A. Wustman, Kenneth J. Valenzano. […] Miglustat TK parameters were estimated by the log-linear trapezoidal rule.

[2] = Model-derived miglustat/ATB200 steady state exposure (AUC) ratio; set-up: species or system mouse; settings: 10 mg/kg miglustat co-administered with 20 mg/kg ATB200
From the text: Pharmacokinetic models (Example 8) are used to predict exposure to acid α-glucosidase and miglustat, time-matched to the values for tissue lysosomal glycogen levels in Table 5.

[3] = target: acid α-glucosidase (Homo sapiens, UniProt P10253); assay: Inhibition of acid α-glucosidase activity; assay type: biochemical
Experimental: Pharmacokinetic models (Example 8) were used to predict the length of time that the plasma or tissue concentrations of duvoglustat (a surrogate of miglustat) would remain above the IC50 (the concentration giving 50% of maximum inhibition of acid α-glucosidase activity) of miglustat in plasma and lysosome. Inhibition of acid α-glucosidase activity is determined by methods described previously (Flanagan J J, Rossi B, Tang K, Wu X, Mascioli K, et al. (2009) “The pharmacological chaperone 1-deoxynojirimycin increases the activity and lysosomal trafficking of multiple mutant forms of acid alpha-glucosidase.” Hum Mutat 30: 1683-1692).

[4] = Population PK model of miglustat, oral dosing in Gaa knockout mice; assay type: in vivo, mouse; settings: typical value
Experimental: A population PK model of miglustat is constructed based on oral dosing in Gaa knockout (KO) mice. The model has a residual additive error of 0.475 ng/m L.

[5] = in vivo; settings: both, Cambodian origin, cynomolgus monkey, in vivo
Experimental: Animals were acclimated to the study room for 18 (females) to 19 (males) days. On the final day of acclimation, animals weighed between 2.243 kg and 5.413 kg and were 2 to 3 years of age.
ATB200 is formulated in 25 mM sodium phosphate buffer, pH 6 containing 2.92 mg/mL sodium chloride, 20 mg/mL mannitol, and 0.5 mg/mL polysorbate 80 (formulation buffer). Test article (ATB200 or miglustat) and control article/vehicle (formulation buffer) were administered once every other week for 13 weeks, starting on Day 1 and ending on Day 85. ATB200 and the control article/vehicle were administered by 2 hour (±10 minute) intravenous (IV) infusion at 0 mg/kg (Group 1, control article), 50 mg/kg (Group 2), or 100 mg/kg (Groups 3 and 5). Miglustat was administered nasogastrically in sterile water for injection, USP, at 25 mg/kg (Group 2) or 175 mg/kg (Groups 3 and 4), 30 minutes (±2 minutes) prior to the start of the infusion for ATB200, when given in combination. The dosing volume across all groups was 10 mL/kg.
Parameters assessed during the in-life phase of the study included body weights, food consumption, clinical observations, detailed clinical observations, physical examinations, electrocardiography, ophthalmic assessments, clinical pathology (hematology, coagulation, serum chemistry), anti-drug antibody (ADA) assessment, neutralizing ADA assessment, urinalysis, and plasma toxicokinetics (TK) for miglustat and ATB200 activity and total protein. Terminal necropsy of animals was performed on Day 99 (14 days after the last dose administration). At necropsy, gross observations and organ weights were recorded, and tissues were collected for microscopic examination.

[6] = Cambodian origin, po, 175 mg/kg, Day 85, 100 mg/kg ATB200 + 175 mg/kg miglustat
[7] = Cambodian origin, po, 175 mg/kg, Day 85, 175 mg/kg miglustat monotherapy
[8] = po, 25 mg/kg, Day 1, 50 mg/kg ATB200 + 25 mg/kg miglustat
[9] = po, 25 mg/kg, Day 85, 50 mg/kg ATB200 + 25 mg/kg miglustat
[10] = po, 175 mg/kg, Day 1, 100 mg/kg ATB200 + 175 mg/kg miglustat
[11] = po, 175 mg/kg, Day 1, 175 mg/kg miglustat monotherapy
[12] = po, 175 mg/kg, Day 85, 100 mg/kg ATB200 + 175 mg/kg miglustat
[13] = po, 175 mg/kg, Day 85, 175 mg/kg miglustat monotherapy

For CCCCN1C[C@H](O)[C@@H](O)[C@H](O)[C@H]1CO [miglustat, (2R,3R,4R,5S)-1-butyl-2-(hydroxymethyl)piperidine-3,4,5-triol], the AUC(0-t) [1, 6] was 216 µg·h/mL, the Cmax [1, 6] was 22000 ng/mL and the AUC(0-t) [1, 7] was 204 µg·h/mL. For the same compound, the Cmax [1, 7] was 14700 ng/mL, the CLT/F ([1]; Day 1, 50 mg/kg ATB200 + 25 mg/kg miglustat) was 1.92 L/h and the CLT/F ([1]; Day 1, 100 mg/kg ATB200 + 175 mg/kg miglustat) was 3.22 L/h. The CLT/F ([1]; Day 1, 175 mg/kg miglustat monotherapy) was 3.67 L/h, the CLT/F ([1]; Day 85, 50 mg/kg ATB200 + 25 mg/kg miglustat) was 1.99 L/h and the CLT/F ([1]; Day 85, 100 mg/kg ATB200 + 175 mg/kg miglustat) was 3.62 L/h. The CLT/F ([1]; Day 85, 175 mg/kg miglustat monotherapy) was 3.49 L/h, the half-life ([1]; both sexes, oral, males and females combined, Days 1 and 85, across groups, read-out: mean t1/2) was 6.66 to 8.23 h and the Tmax ([1]; oral, postdose, across groups and days) was 2 to 4 h. It also gave an AUC(0-t) [1, 8] of 47.3 µg·h/mL, a Cmax [1, 8] of 7430 ng/mL and a Tmax [1, 8] of 2.06 h. It also gave a Vd/F [1, 8] of 20.5 L, a half-life ([1]; po, 25 mg/kg, Day 1, 50 mg/kg ATB200 + 25 mg/kg miglustat, read-out: t1/2 (converted)) of 7.44 h and an AUC(0-t) [1, 9] of 49.1 µg·h/mL. For the same compound, the Cmax [1, 9] was 7510 ng/mL, the Tmax [1, 9] was 2.88 h and the Vd/F [1, 9] was 23.3 L. The half-life ([1]; po, 25 mg/kg, Day 85, 50 mg/kg ATB200 + 25 mg/kg miglustat, read-out: t1/2 (converted)) was 8.23 h, the AUC(0-t) [1, 10] was 182 µg·h/mL and the Cmax [1, 10] was 20400 ng/mL. For the same compound, the Tmax [1, 10] was 2.69 h, the Vd/F [1, 10] was 32.3 L and the half-life ([1]; po, 175 mg/kg, Day 1, 100 mg/kg ATB200 + 175 mg/kg miglustat, read-out: t1/2 (converted)) was 6.85 h. For the same compound, the AUC(0-t) [1, 11] was 173 µg·h/mL, the Cmax [1, 11] was 16400 ng/mL and the Vd/F [1, 11] was 35.9 L. For the same compound, the half-life ([1]; po, 175 mg/kg, Day 1, 175 mg/kg miglustat monotherapy, read-out: t1/2 (converted)) was 6.86 h, the Tmax [1, 12] was 3.56 h and the Vd/F [1, 12] was 39.1 L. It also gave a half-life ([1]; po, 175 mg/kg, Day 85, 100 mg/kg ATB200 + 175 mg/kg miglustat, read-out: t1/2 (converted)) of 7.86 h, a Tmax [1, 13] of 4.13 h and a Vd/F [1, 13] of 33.8 L. The half-life ([1]; po, 175 mg/kg, Day 85, 175 mg/kg miglustat monotherapy, read-out: t1/2 (converted)) was 6.66 h, the “miglustat/ATB200 AUC ratio” value [2] was 0.01159 and the “IC50, inhibition of acid α-glucosidase activity” value ([3]; pH of plasma (pH 7.0)) was 0.17 µg/mL. The IC50 ([3]; pH of the lysosomal compartment (pH 5.2)) was 1720 nM, the “Central volume of distribution (Vc)” value [4] was 4.55 mL and the “Peripheral clearance (CLd)” value [4] was 4.57 mL/h. For the same compound, the “Peripheral volume of distribution (V2)” value [4] was 19.6 mL, the “Rate constant of absorption (Ka)” value [4] was 2.09 h⁻¹ and the “Systemic clearance (CL)” value [4] was 43.3 mL/h. The NOAEL at 13 weeks [5] was 175 mg/kg.
